# Measurements as given in patent US20260115250A1, “METHODS OF TREATING AGE-RELATED MACULAR DEGENERATION” (Character Biosciences, Inc., priority 2022, published 2026).
# Ends that are not written are not given here. Peptide text beside a SMILES is read from it.
# Experiments:
# C57BL/6J mice = experiment: tolerability testing in mice after intravitreal injection (H&E histopathology); format: in vivo, mouse; details: IVT, 520 μM, seven days
# Excerpt: Seven days following IVT injection, eyes were harvested and prepared for hematoxylin and eosin staining. A blinded veterinarian performed histopathological analysis of tissue slices to determine whether the peptides induced inflammation or retinal disruption.
# [1] = peptide binding to non-oxidized and oxidized lipids (SPR); details: immobilized peptide; RU normalized to DMPC
# Procedure: FIGS. 25A-25O show peptide binding activity to non-oxidized and oxidized lipids via SPR for indicated peptides. Peptides were reconstituted to 50 μg/mL in 10 mM acetate buffer, pH 4.5 and immobilized to ˜200 RU on a CM5 chip via amine coupling. Non-oxidized lipids (DMPC & POPC) and oxidized lipids (POVPC & KOdiA-PC) were diluted to 100 µM in HBS-EP running buffer and exposed to the chip for binding (n=3) at a flow rate of […] for 120 seconds. The surface was regenerated with 20% EtOH. T-001 served as a positive control and T-031 served as a negative control on each chip. For each peptide, the RU response for all lipids was normalized to the DMPC RU values.
# [2] = DMPC solubility assay, 0.5 mM DMPC (turbidity reduction); format: biochemical; details: FIGS. 2A-2D and 3A-3C
# Procedure: In this example, peptide stocks were diluted to 200 μM in H2O (a 2× solution) and 50 μL of peptide solution was transferred in triplicate into 96-well plates. A one mM solution of 1,2-dimyristoyl-sn-glycero-3-phosphocholine (DMPC) in H2O was prepared, and using a multichannel pipet, 50 μL DMPC solution was rapidly added to the plate. Peptide and lipid solutions were incubated at room temperature for 15 minutes with a final concentration of 100 μM peptides and 0.5 mM DMPC. After 15 minutes, absorbance was read on a plate reader at 405 nm. […] Data are presented as mean+SD over two runs.
# In these experiments, DMPC solubility titration curves were generated. Peptide stocks were diluted to 200 μM in H2O (a 2× solution) and serially diluted in H2O over 4 concentrations, then 50 μL of peptide solutions were distributed in triplicate into 96-well plates. A 1 mM solution of 1,2-dimyristoyl-sn-glycero-3-phosphocholine (DMPC) in H2O was prepared, and using a multichannel pipet, 50 μL DMPC solution was rapidly added to the plate. Peptide and lipid solutions were incubated at room temperature for 15 minutes with final concentrations of 3.16-100 μM peptides and 0.5 mM DMPC. After 15 minutes, absorbance was read on a plate reader at 405 nm. […] Data are presented as mean+SD over two runs. Non-linear regression was used to calculate EC50 values.
# ARPE-19 cells = experiment: ARPE-19 cell lysis (Sytox Green); format: cell-based, human; details: 10 μM peptide, 2 h
# Procedure: These figures illustrate ARPE-19 cell lysis. ARPE-19 cells were grown in 96-well plates to 75-85% confluence. Peptides at 10 mM were diluted in serum-free DMEM:F12 media into a 20 μM working solution (a 2× solution). Sytox Green was prepared in serum-free DMEM:F12 at a 1 μM working solution (a 2× solution). Equivalent volumes of the peptide and Sytox Green solutions were added to empty 96-well plates and mixed gently. Final peptide concentration was 10 μM. ARPE-19 cells (˜80% confluent in 96-well plates) were washed with DPBS and then incubated in 100 μL of peptide/Sytox Green mixture for 2 h at 37° C. Cells were fixed in 4% paraformaldehyde solution in DPBS and then incubated in 10 μM Hoechst solution for 10 min, washed, and imaged on a Yokogawa CQ1 high-content imager. CellPathfinder software was used to count live/dead cells in 4 fields of view at 20× magnification. Percent (%) lysis was calculated by dividing the number of Sytox Green+ nuclei by the total number of Hoechst+ nuclei.
# ARPE-19 cells were grown in 96-well plates to 75-85% confluence. Peptides at 10 mM were diluted in serum-free DMEM: F12 media to solutions between […]. Sytox Green was prepared in serum-free DMEM: F12 media at a 1 μM working solution. Equivalent volumes of the peptide and Sytox Green solutions were added to empty 96-well plates and mixed gently. Final peptide concentration was 3.16-100 μM. ARPE-19 cells (˜80% confluent in 96-well plates) were washed with DPBS and then incubated in 100 μL of peptide/Sytox Green mixture for 2 h at 37° C. Cells were fixed in 4% paraformaldehyde solution in DPBS and then incubated in 10 μM Hoechst solution for 10 min, washed, and imaged on a Yokogawa CQ1 high-content imager. CellPathfinder software was used to count live/dead cells in 4 fields of view at 20× magnification. Percent (%) lysis was calculated by dividing the number of Sytox Green+ nuclei by the total number of Hoechst+ nuclei. Non-linear regression was used to calculate EC50 values.
# LDLR [3] = biological target: T1, LDLR (Homo sapiens, UniProt P01130); experiment: lipid-dependent LDLR binding (SPR), single concentration; details: 1 μM peptide with or without 25 μM DMPC
# Procedure: Peptides were diluted in 1×HBS-N buffer with 1 mM CaCl2 to a final concentration of 1 μM and incubated with or without 25 μM DMPC for 1 hour at RT to form lipid complexes. Each peptide was tested in duplicate. LDLR was diluted to 10 μg/mL in 10 mM acetate buffer pH 4.5 and was immobilized (˜400RU) on a CM5 chip via amine coupling utilizing 1×HBS-P+ buffer with 1 mM CaCl2. Test peptides (with or without DMPC) were exposed to immobilized LDLR at a flow rate of […] for 120 seconds in HBS-N with 1 mM CaCl2. Between cycles the surface was regenerated with 3, 30 second injections of 10 mM NaOH and 100 mM EDTA. Data are plotted as max RU values, averaged from three separate runs.
# LDLR [4] = biological target: T1, LDLR; experiment: LDLR binding (SPR), high surfactant preparation
# In short: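 Surface plasmon resonance with recombinant LDLR amine-coupled to a CM5 chip at 1000 RU. Peptides, 5 μM top concentration then 1:3 dilutions (5 levels) in HBS-P+ with 1 mM CaCl2, injected 120 seconds at 30 μL/sec; multi-cycle kinetics fitted to a 1:1 binding model.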
# T1 sequence (P01130 22-860): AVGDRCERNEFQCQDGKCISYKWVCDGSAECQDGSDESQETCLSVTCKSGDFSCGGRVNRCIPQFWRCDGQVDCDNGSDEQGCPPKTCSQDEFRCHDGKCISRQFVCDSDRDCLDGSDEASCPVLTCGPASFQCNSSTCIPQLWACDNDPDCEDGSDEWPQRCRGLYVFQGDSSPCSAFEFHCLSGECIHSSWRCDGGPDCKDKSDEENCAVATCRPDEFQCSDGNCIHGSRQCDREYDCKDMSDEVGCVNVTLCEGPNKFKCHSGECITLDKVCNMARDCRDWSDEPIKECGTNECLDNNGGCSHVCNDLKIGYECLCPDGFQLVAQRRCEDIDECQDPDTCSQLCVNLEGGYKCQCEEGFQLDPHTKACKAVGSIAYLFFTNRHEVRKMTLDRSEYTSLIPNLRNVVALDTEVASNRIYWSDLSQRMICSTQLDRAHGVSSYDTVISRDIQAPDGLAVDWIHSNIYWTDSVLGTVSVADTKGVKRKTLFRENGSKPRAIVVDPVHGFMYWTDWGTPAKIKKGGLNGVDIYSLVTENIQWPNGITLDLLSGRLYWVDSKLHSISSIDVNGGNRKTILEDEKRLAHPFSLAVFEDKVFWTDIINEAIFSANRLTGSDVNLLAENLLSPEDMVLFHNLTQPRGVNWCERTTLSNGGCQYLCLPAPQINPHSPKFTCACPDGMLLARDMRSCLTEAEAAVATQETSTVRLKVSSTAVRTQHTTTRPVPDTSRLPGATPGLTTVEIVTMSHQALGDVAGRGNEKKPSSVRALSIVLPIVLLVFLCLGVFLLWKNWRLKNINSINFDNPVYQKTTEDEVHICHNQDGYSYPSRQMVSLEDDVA
compound,measurement,setting,value
CC(C)C[C@H](NC(=O)[C@H](C)NC(=O)[C@H](CCCNC(=N)N)NC(=O)[C@H](Cc1ccccc1)NC(=O)[C@H](CCCNC(=N)N)NC(=O)[C@H](CCC(=O)O)NC(=O)[C@H](Cc1c[nH]c2ccccc12)NC(=O)[C@H](C)NC(=O)[C@@H](N)CC(=O)O)C(=O)N[C@@H](Cc1ccccc1)C(=O)N[C@@H](CCCCN)C(=O)N[C@@H](CCC(=O)O)C(=O)N[C@@H](CC(C)C)C(=O)N[C@@H](C)C(=O)N[C@@H](CC(=O)O)C(=O)N[C@@H](Cc1ccc(O)cc1)C(=O)N[C@@H](Cc1ccccc1)C(=O)N[C@@H](CCCNC(=N)N)C(=O)O [T-087] (H-DAWERFRALFKELADYFR-OH; N-terminus and C-terminus assumed),in vivo tolerability (inflammation or retinal disruption),C57BL/6J mice,well tolerated
T-030: therapeutic peptide (EHLCELIERACRKLVELQEKLSKWLIAELGEGWRQWLHSLKEFLS),binding to oxidized lipids relative to DMPC,[1],binding to at least one oxidized lipid that was equivalent or improved to binding against DMPC
same,DMPC solubilizing activity,[2],significant activity
"CC[C@H](C)[C@H](NC(=O)CN)C(=O)N[C@@H](CCCCN)C(=O)N[C@@H](CCCCN)C(=O)N[C@@H](Cc1ccccc1)C(=O)N[C@@H](CC(C)C)C(=O)NCC(=O)N[C@@H](CO)C(=O)N[C@H](C(=O)N[C@@H](Cc1c[nH]c2ccccc12)C(=O)N[C@@H](CCCCN)C(=O)N[C@@H](Cc1ccccc1)C(=O)N[C@H](C(=O)N[C@@H](CCCCN)C(=O)N[C@@H](C)C(=O)N[C@@H](Cc1ccccc1)C(=O)N[C@H](C(=O)NCC(=O)O)C(C)C)[C@@H](C)CC)[C@@H](C)CC [T-034, reference compound] (H-GIKKFLGSIWKFIKAFVG-OH)",ARPE-19 cell lysis,ARPE-19 cells,induce cell lysis
T-009: therapeutic peptide (EELRVRLASHLRKLRKRLLRDADDLQKRLAVYQAGAREGAERGLSAIRER),lipid-dependent LDLR binding (RU with lipid vs peptide alone),LDLR [3],lipid-dependent LDLR binding activity
same,binding to oxidized lipids relative to DMPC,[1],binding to at least one oxidized lipid that was equivalent or improved to binding against DMPC
same,DMPC solubilizing activity,[2],significant activity
CC(C)C[C@H](NC(=O)[C@H](CC(C)C)NC(=O)[C@H](CCCNC(=N)N)NC(=O)[C@H](CCCCN)NC(=O)[C@H](CCCNC(=N)N)NC(=O)[C@H](CC(C)C)NC(=O)[C@H](CCCCN)NC(=O)[C@H](CCCNC(=N)N)NC(=O)[C@H](CC(C)C)NC(=O)[C@@H](N)Cc1c[nH]cn1)C(=O)N[C@@H](CCCNC(=N)N)C(=O)N[C@@H](CC(=O)O)C(=O)N[C@@H](Cc1c[nH]c2ccccc12)C(=O)N[C@@H](Cc1ccccc1)C(=O)N[C@@H](CCCCN)C(=O)N[C@@H](C)C(=O)N[C@@H](Cc1ccccc1)C(=O)N[C@@H](Cc1ccc(O)cc1)C(=O)N[C@@H](CC(=O)O)C(=O)N[C@@H](CCCCN)C(=O)N[C@H](C(=O)N[C@@H](C)C(=O)N[C@@H](CCC(=O)O)C(=O)N[C@@H](CCCCN)C(=O)N[C@@H](Cc1ccccc1)C(=O)N[C@@H](CCCCN)C(=O)N[C@@H](CCC(=O)O)C(=O)N[C@@H](C)C(=O)N[C@@H](Cc1ccccc1)C(=O)O)C(C)C [T-021] (H-HLRKLRKRLLRDWFKAFYDKVAEKFKEAF-OH),ARPE-19 cell lysis,ARPE-19 cells,induce cell lysis
YKDFGERVERALGRQLEMLGQSTEELRVRLASHLRKLRKRLLRDADDLQKRLAVYQA [T-112],in vivo tolerability (inflammation or retinal disruption),C57BL/6J mice,all peptides except T-112 were well tolerated
same,Kd,LDLR [4],< 10 µM
T-007: therapeutic peptide (EELRVRLASHLRKLRKRLLRDADDLQKRLAVYQA),lipid-dependent LDLR binding (RU with lipid vs peptide alone),LDLR [3],lipid-dependent LDLR binding activity
same,DMPC solubilizing activity,[2],significant activity
T-018: therapeutic peptide (HLRKLRKRLLRPPEQAQQIRLQAEAFQARLKSWFE),lipid-dependent LDLR binding (RU with lipid vs peptide alone),LDLR [3],lipid-dependent LDLR binding activity
same,DMPC solubilizing activity,[2],significant activity
CC[C@H](C)[C@H](NC(=O)[C@H](Cc1ccccc1)NC(=O)[C@H](CCCNC(=N)N)NC(=O)[C@H](CCCCN)NC(=O)[C@H](CC(C)C)NC(=O)[C@H](CCC(=O)O)NC(=O)[C@H](CCCCN)NC(=O)[C@H](CC(C)C)NC(=O)[C@H](C)NC(=O)[C@H](CO)NC(=O)[C@H](CCC(=O)O)NC(=O)[C@H](CC(C)C)NC(=O)[C@H](C)NC(=O)[C@H](CC(=O)O)NC(=O)[C@H](C)NC(=O)CNC(=O)[C@H](CO)NC(=O)[C@@H](N)CCCNC(=N)N)C(=O)N[C@@H](CCCNC(=N)N)C(=O)N[C@@H](CCC(=O)O)C(=O)N[C@@H](Cc1c[nH]c2ccccc12)C(=O)N[C@H](C(=O)O)[C@@H](C)O [T-101] (H-RSGADALESALKELKRFIREWT-OH; N-terminus and C-terminus assumed),in vivo tolerability (inflammation or retinal disruption),C57BL/6J mice,well tolerated
CC(C)C[C@H](NC(=O)[C@H](Cc1ccccc1)NC(=O)[C@H](CCC(=O)O)NC(=O)[C@H](CCC(=O)O)NC(=O)[C@H](CC(C)C)NC(=O)[C@H](CCC(N)=O)NC(=O)[C@H](CCCNC(=N)N)NC(=O)CNC(=O)[C@@H](NC(=O)[C@H](CC(C)C)NC(=O)[C@H](CCCNC(=N)N)NC(=O)[C@H](CC(C)C)NC(=O)[C@H](CC(C)C)NC(=O)[C@H](CCCNC(=N)N)NC(=O)[C@H](CCCCN)NC(=O)[C@H](CCCNC(=N)N)NC(=O)[C@H](CC(C)C)NC(=O)[C@H](CCCCN)NC(=O)[C@H](CCCNC(=N)N)NC(=O)[C@H](CC(C)C)NC(=O)[C@@H](N)Cc1c[nH]cn1)C(C)C)C(=O)O [T-028] (H-HLRKLRKRLLRLVGRQLEEFL-OH),ARPE-19 cell lysis,ARPE-19 cells,induce cell lysis
LKDFGERVARALREQFEDLGQSTEELRVRLASHLRKLRKRLLRDADDLQKRLAVYQA [T-114],in vivo tolerability (inflammation or retinal disruption),C57BL/6J mice,well tolerated
same,Kd,LDLR [4],< 10 µM
